Reference: PubChem BioAssay AID977613 (Broad Institute, 2014)
Activity calls are given as the source filed them. How the calls were made is not given here.

These compounds were tested on Broad 7084-01 inhibitor HTS, set 2 (assay: inhibitors in Broad screen 7084-01, set 2 (AID 977613);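 further: host cells are infected with parasite promastigotes that become internalized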).

Row | Compound | active concentration
1 | CCCNC(=O)N1[C@@H]2CN(C(=O)c3cccnc3)c3ccccc3[C@@H]2[C@@H]1CO | > 10 µM (inactive)
2 | O=C(C1CCC1)N1CC2(C1)[C@H](c1ccccc1)[C@H](CO)N2C(=O)c1ccccn1 | > 10 µM (inactive)
3 | O=C(Nc1cccc(F)c1)N1CCCCN2[C@H](C1)[C@@H](c1ccc(C#Cc3cccnc3)cc1)[C@@H]2CO | > 10 µM (inactive)
4 | COc1ccc2c3c([nH]c2c1)[C@@H](CO)N(Cc1ccccc1OC)CC31CN(C(C)=O)C1 | > 10 µM (inactive)
5 | CCCNC(=O)N1CC(=O)N2[C@H](CO)[C@@H](c3ccc(C#CCC4CCCC4)cc3)[C@H]2C1 | > 10 µM (inactive)
6 | C/C=C/c1ccc([C@@H]2[C@@H](CO)N(C(=O)C3CCOCC3)C23CN(C(=O)NC(C)C)C3)cc1 | > 10 µM (inactive)
7 | COCCNC(=O)[C@@H]1[C@@H](CO)[C@@H]2Cn3c(cccc3=O)[C@H]1N2S(=O)(=O)c1ccccc1C | > 10 µM (inactive)
8 | CS(=O)(=O)N1[C@H](CO)[C@@H](c2ccccc2)C12CN(Cc1ccccn1)C2 | > 10 µM (inactive)
9 | CCNC(=O)Nc1ccc2c(c1)C(=O)N(C)[C@H]1CC[C@@H](CC(=O)N[C@@H](C)c3ccccc3)O[C@H]1CO2 | > 10 µM (inactive)
10 | Cc1noc(C)c1NC(=O)N1C[C@@H](O)COC[C@H]2O[C@H](CC(=O)NCC3CCCCC3)CC[C@@H]21 | > 10 µM (inactive)
11 | O=C(c1ccccc1F)N1CC(=O)N2[C@H](CO)[C@@H](c3ccc(C#Cc4ccccc4)cc3)[C@@H]2C1 | > 10 µM (inactive)
12 | CN1C[C@H](O)COC[C@@H]2O[C@H](CC(=O)NC3CCCC3)CC[C@H]21 | > 10 µM (inactive)
13 | CCNC(=O)Nc1ccc2c(c1)C(=O)N(C)[C@@H]1CC[C@@H](CC(=O)N[C@H](C)c3ccccc3)O[C@H]1CO2 | > 10 µM (inactive)
14 | COc1ccc(CN2[C@@H]3CNc4ccccc4[C@@H]3[C@@H]2CO)cc1 | > 10 µM (inactive)
15 | CN1C(=O)c2cc(NC(=O)c3ccc(F)c(F)c3)ccc2OC[C@H]2O[C@@H](CC(=O)N[C@@H]3CCN(Cc4ccccc4)C3)CC[C@H]21 | > 10 µM (inactive)
16 | CN1c2ccc(-c3ccccc3F)cc2[C@@H]2[C@@H](CCN2C(=O)Cc2ccccn2)[C@@H]1CO | > 10 µM (inactive)
17 | COc1cccc(-c2ccc3c(c2)[C@H]2[C@H](CCN2S(=O)(=O)c2ccccc2C)[C@H](CO)N3)c1 | > 10 µM (inactive)
18 | CN1CCN(C(=O)C[C@H]2CC[C@@H]3[C@H](COC[C@H](O)CN3C(=O)C3CC3)O2)CC1 | > 10 µM (inactive)

Row | Compound | active concentration
19 | CN1C(=O)c2cc(NC(=O)Cc3cccs3)ccc2OC[C@@H]2O[C@@H](CC(=O)N[C@H]3CCN(Cc4ccccc4)C3)CC[C@H]21 | > 10 µM (inactive)
20 | CCC(=O)N1CC2(C1)[C@@H](c1ccc(-c3ccc(F)cc3)cc1)[C@@H](CO)N2C(=O)CC | > 10 µM (inactive)
21 | COc1ccc2c3c([nH]c2c1)[C@@H](CO)N(C(=O)c1cccnc1)CC31CCN(C(=O)CN(C)C)CC1 | > 10 µM (inactive)
22 | Cc1ccc(CN2CC(=O)N3[C@H](C2)[C@H](c2ccc(-c4ccccc4F)cc2)[C@@H]3CO)cc1 | > 10 µM (inactive)
23 | COCC#Cc1ccc([C@@H]2[C@@H](CO)N3C(=O)CN(C(=O)Nc4ccccc4F)C[C@H]23)cc1 | > 10 µM (inactive)
24 | COCC(=O)N1[C@@H](C#N)[C@@H](c2ccccc2-c2cccc(C)c2)[C@@H]1CO | > 10 µM (inactive)
25 | COc1ccc(-c2ccccc2[C@@H]2[C@@H](CO)N(C(=O)NC(C)C)[C@H]2C#N)cc1 | > 10 µM (inactive)
26 | O=C(c1cccc(F)c1)N1CCCCN2[C@H](CO)[C@@H](c3ccc(C#CC4(O)CCCC4)cc3)[C@H]2C1 | > 10 µM (inactive)
27 | CN(C)C(=O)c1cccc(-c2ccc([C@H]3[C@H](CO)N4CCCCN(CC5CCOCC5)C[C@@H]34)cc2)c1 | > 10 µM (inactive)
28 | O=C(C[C@@H]1CC[C@H]2[C@@H](COC[C@H](O)CN2Cc2ccc3c(c2)OCO3)O1)Nc1ccccc1 | > 10 µM (inactive)
29 | O=C(c1ccncc1)N1C[C@H]2[C@@H](c3ccccc31)[C@@H](CO)N2Cc1ccccc1F | > 10 µM (inactive)
30 | CN1CCN(C(=O)C[C@H]2CC[C@@H]3[C@H](COC[C@@H](O)CN3C(=O)C3CC3)O2)CC1 | > 10 µM (inactive)
31 | O=C1CNC[C@@H]2[C@@H](c3ccc(-c4ccccc4F)cc3)[C@@H](CO)N12 | > 10 µM (inactive)
32 | COCC#Cc1ccc([C@@H]2[C@H](CO)N3C(=O)CN(C(=O)Nc4ccccc4F)C[C@@H]23)cc1 | > 10 µM (inactive)
33 | O=C(C[C@@H]1CC[C@@H]2[C@H](COC[C@@H](O)CN2C(=O)C2CC2)O1)NCc1ccncc1 | > 10 µM (inactive)
34 | O=C(C1CC1)N1CC2(C1)[C@H](c1ccccc1)[C@H](CO)N2Cc1nccs1 | > 10 µM (inactive)
35 | C/C=C/c1ccc([C@H]2[C@H]3CN(S(=O)(=O)c4ccc(OC)cc4)CCCCN3[C@H]2CO)cc1 | > 10 µM (inactive)
